Measurements as given in patent US12129487B2, “Method to obtain lymphoid progenitors” (INSERM (Institute National de la Santé et de la Recherche …, priority 2017, dated 2024).

Legend:
[1] = system: circulating HSPCs
From the text: One hour later, peripheral blood was harvested, analyzed by flow cytometry and tested for CFU-C assays.

[2] = system: LSK SLAM (HSCs) or MPPs; assay: In vitro differentiation assay of purified LSK SLAM or MPPs in cytokine-supplemented feeder-free media; type: cell-based, mouse
[3] = system: MPPs; assay: Impact of CXCL12 concentrations on lymphoid commitment of purified MPPs in vitro; type: cell-based, mouse; conditions: WT MPPs, CXCL12 1 to 1,000 ng/ml at start, day 4 (FIG. 3)
Method: Purified MPPs were seeded at 450 cells into a 96-well tissue culture plate in DMEM medium supplemented with 10% FBS, 1% penicillin, and the following cytokines: mouse SCF (50 ng/mL), mouse IL-3 (10 ng/mL), human IL-6 (10 ng/mL), mouse IL-7 (5 ng/mL), and human Flt3 (5 ng/mL). Different concentrations of CXCL12 ranging from 1 to 1,000 ng/ml were added at the start of the culture. Cells were cultured at 37° C. in a humidified atmosphere containing 5% CO2, and were harvested after 4 days of culture to analyze HSPCs by flow cytometry.

Compound | absolute numbers of circulating HSPCs ([1]; WT mice, single intra-peritoneal injection (5 mg/kg), one hour after injection, blood) | absolute numbers of HSPCs in the blood ([1]; mutant (Cxcr4 1013-bearing) mice, single intra-peritoneal injection, one hour, reaching that of untreated WT mice) | appearance of LMPPs ([2]; 100 ng/mL added at start of culture of MPPs, regardless of Cxcr4 genotype, less pronounced among mutant cells) | proportions and numbers of Cxcr4 1013-bearing MPPs ([2]; 100 ng/mL added at start of culture, mutant cells, days 2 and 4 (FIGS. 1 and 2)) | myeloid-biased MPP2 proportions and numbers [3] | myeloid-biased MPP3 proportions and numbers [3] | proportions and absolute numbers of MPPs [3] | proportions and absolute numbers of lymphoid-biased MPP4 [3]
c1cc(CN2CCCNCCNCCCNCC2)ccc1CN1CCCNCCNCCCNCC1 [AMD3100] | significant increase | increased | – | – | – | – | – | –
CXCL12: C-X-C motif chemokine 12, natural ligand of CXCR4, added to the culture medium | – | – | promoted the appearance of LMPPs | further enhanced | decrease | decrease | significant and dose-dependent increase | significant and dose-dependent increase
